Source: patent publication US20240360126A1, “PYRAZOLO[3,4-B]PYRIDINE COMPOUNDS FOR THE TREATMENT OF AUTOIMMUNE DISEASE” (Hoffmann-La Roche Inc., priority 2021, published 2024)

Biological target: T1, TLR9 (Homo sapiens, UniProt Q9NR96)
T1 sequence (Q9NR96 26-1032): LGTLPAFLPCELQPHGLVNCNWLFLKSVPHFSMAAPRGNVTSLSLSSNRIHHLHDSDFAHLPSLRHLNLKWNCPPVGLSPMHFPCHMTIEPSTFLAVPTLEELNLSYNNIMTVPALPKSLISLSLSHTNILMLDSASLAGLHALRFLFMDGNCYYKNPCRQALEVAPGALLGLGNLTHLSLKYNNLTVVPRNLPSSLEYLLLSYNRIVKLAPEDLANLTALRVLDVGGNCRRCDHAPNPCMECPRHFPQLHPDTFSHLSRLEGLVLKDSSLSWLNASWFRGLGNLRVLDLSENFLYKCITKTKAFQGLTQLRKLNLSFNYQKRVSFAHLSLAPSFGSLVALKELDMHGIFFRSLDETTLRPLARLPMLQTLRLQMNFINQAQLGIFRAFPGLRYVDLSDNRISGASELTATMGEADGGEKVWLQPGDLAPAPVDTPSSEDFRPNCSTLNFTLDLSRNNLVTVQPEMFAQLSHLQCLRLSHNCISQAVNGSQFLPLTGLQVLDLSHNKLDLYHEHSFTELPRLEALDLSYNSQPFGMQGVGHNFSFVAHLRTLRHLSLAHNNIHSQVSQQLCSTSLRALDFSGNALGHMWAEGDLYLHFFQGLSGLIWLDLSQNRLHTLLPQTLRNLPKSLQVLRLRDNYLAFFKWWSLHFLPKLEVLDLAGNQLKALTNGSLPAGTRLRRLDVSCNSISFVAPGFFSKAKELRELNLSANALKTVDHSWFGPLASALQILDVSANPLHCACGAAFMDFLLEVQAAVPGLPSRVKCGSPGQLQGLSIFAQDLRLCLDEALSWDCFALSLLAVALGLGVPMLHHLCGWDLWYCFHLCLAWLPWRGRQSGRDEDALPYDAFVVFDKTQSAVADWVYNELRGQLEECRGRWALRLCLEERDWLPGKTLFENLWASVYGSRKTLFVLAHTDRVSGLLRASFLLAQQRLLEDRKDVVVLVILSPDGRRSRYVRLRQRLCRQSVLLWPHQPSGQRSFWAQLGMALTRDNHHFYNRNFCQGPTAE
Experiment: HEK293-Blue-hTLR-9 cells assay
Assay type: cell-based
Design: host or cells: HEK293 (HEK-Blue hTLR9)
Conditions: HEK293-Blue-hTLR9 cells, ODN2006 stimulation, 20 hrs; read-out: HEK/hTLR9 IC50
Text: A stable HEK293-Blue-hTLR-9 cell line was purchased from InvivoGen (Cat. #: hkb-htlr9, San Diego, California, USA). These cells were originally designed for studying the stimulation of human TLR9 by monitoring the activation of NF-κB. A SEAP (secreted embryonic alkaline phosphatase) reporter gene was placed under the control of the IFN-β minimal promoter fused to five NF-κB and AP-1-binding sites. The SEAP was induced by activating NF-κB and AP-1 via stimulating HEK-Blue hTLR9 cells with TLR9 ligands. Therefore the reporter expression was declined by TLR9 antagonist under the stimulation of a ligand, such as ODN2006 (Cat. #: tlrl-2006-1, Invivogen, San Diego, California, USA), for incubation of 20 hrs. The cell culture supernatant SEAP reporter activity was determined using QiANTI-Blue™ kit (Cat. #: rep-qbl, Invivogen, San Diego, California, USA) at a wavelength of 640 nm, a detection medium that turns purple or blue in the presence of alkaline phosphatase.
HEK293-Blue-hTLR9 cells were incubated at a density of 250,000-450,000 cells/mL in a volume of 170 μL in a 96-well plate in Dulbecco's Modified Eagle's medium (DMEM) containing 4.5 g/L glucose, 50 U/mL penicillin, […], […], 10% (v/v) heat-inactivated fetal bovine serum with addition of 20 μL test compound in a serial dilution in the presence of final DMSO at 1% and 10 μL of 20 μM ODN2006 in above DMEM, perform incubation under 37° C. in a C02 incubator for 20 hrs. Then 20 μL of the supernatant from each well was incubated with 180 μl. Quanti-blue substrate solution at 37° C. for 2 h and the absorbance was read at 620˜655 nm using a spectrophotometer. The signaling pathway that TLR9 activation leads to downstream NF-κB activation has been widely accepted, and therefore similar reporter assay was modified for evaluating TLR9 antagonist.

Structure (SMILES)	IC50
COC[C@H]1CN(c2cnc([C@@H]3CCN(c4cc(C)nc5c4cnn5C)C[C@H]3C)c(C)c2)CCN1 [Example 29, 4-[(3S,4R)-4-[5-[(3R)-3-(methoxymethyl)piperazin-1-yl]-3-methyl-2-pyridyl]-3-methyl-1-piperidyl]-1,6-dimethyl-pyrazolo[3,4-b]pyridine]	0.238 µM
Cc1cc(N2CC[C@@H](c3ncc(N4CC[C@@H](N)[C@H](F)C4)cc3C)[C@H](C)C2)c2cnn(C)c2n1 [Example 31, (3R,4R)-1-[6-[(3S,4R)-1-(1,6-dimethylpyrazolo[3,4-b]pyridin-4-yl)-3-methyl-4-piperidyl]-5-methyl-3-pyridyl]-3-fluoro-piperidin-4-amine]	0.219 µM
COC[C@H]1CN(c2ccc([C@H]3CCN(c4cc(C)nc5c4cnn5C)C[C@@H]3C)nc2)CCN1 [Example 37, 4-[(3R,4S)-4-[5-[(3R)-3-(methoxymethyl)piperazin-1-yl]-2-pyridyl]-3-methyl-1-piperidyl]-1,6-dimethyl-pyrazolo[3,4-b]pyridine]	0.332 µM
Cc1cc(N2CC[C@H](c3ccc(N4CC5(CNCCO5)C4)cn3)[C@@H](C)C2)c2cnn(C)c2n1 [Example 38, 2-[6-[(3R,4S)-1-(1,6-dimethylpyrazolo[3,4-b]pyridin-4-yl)-3-methyl-4-piperidyl]-3-pyridyl]-5-oxa-2,8-diazaspiro[3.5]nonane]	0.192 µM
CO[C@H]1CN(c2ccc([C@H]3CCN(c4cc(C)nc5c4cnn5C)C[C@@H]3C)nc2)CC[C@@H]1N [Example 39, (3S,4S)-1-[6-[(3R,4S)-1-(1,6-dimethylpyrazolo[3,4-b]pyridin-4-yl)-3-methyl-4-piperidyl]-3-pyridyl]-3-methoxy-piperidin-4-amine]	0.211 µM
Cc1cc(N2CC[C@H](c3ccc(N4CC[C@@H](N)[C@H](F)C4)cn3)[C@@H](C)C2)c2cnn(C)c2n1 [Example 41, (3R,4R)-1-[6-[(3R,4S)-1-(1,6-dimethylpyrazolo[3,4-b]pyridin-4-yl)-3-methyl-4-piperidyl]-3-pyridyl]-3-fluoro-piperidin-4-amine]	0.231 µM
Cc1cc(N2CC[C@H](c3ccc(N4CC(C)(N)C4)cn3)[C@@H](C)C2)c2cnn(C)c2n1 [Example 43, 1-[6-[(3R,4S)-1-(1,6-dimethylpyrazolo[3,4-b]pyridin-4-yl)-3-methyl-4-piperidyl]-3-pyridyl]-3-methyl-azetidin-3-amine]	0.203 µM

The next compounds have a lower IC50 than those just listed; values first:

IC50	Structure (SMILES)
0.186 µM	Cc1cc(N2CC[C@@H](c3ncc(N4CC(C)(N)C4)cc3C)[C@H](C)C2)c2cnn(C)c2n1 [Example 32, 1-[6-[(3S,4R)-1-(1,6-dimethylpyrazolo[3,4-b]pyridin-4-yl)-3-methyl-4-piperidyl]-5-methyl-3-pyridyl]-3-methyl-azetidin-3-amine]
0.079 µM	Cc1cc(N2CC[C@@H](c3ncc(N4C[C@H]5NCCO[C@@H]5C4)cc3C)[C@H](C)C2)c2cnn(C)c2n1 [Example 33, (4aR,7aR)-6-[6-[(3S,4R)-1-(1,6-dimethylpyrazolo[3,4-b]pyridin-4-yl)-3-methyl-4-piperidyl]-5-methyl-3-pyridyl]-3,4,4a,5,7,7a-hexahydro-2H-pyrrolo[3,4-b][1,4]oxazine]
0.165 µM	Cc1cc(N2CC[C@@H](c3ccc(N4CCNCC4)cn3)[C@H](C)C2)c2cnn(C)c2n1 [Example 34, 1,6-dimethyl-4-[(3S,4R)-3-methyl-4-(5-piperazin-1-yl-2-pyridyl)-1-piperidyl]pyrazolo[3,4-b]pyridine]
0.158 µM	Cc1cc(N2CC[C@H](c3ccc(N4CCNCC4)cn3)[C@@H](C)C2)c2cnn(C)c2n1 [Example 35, 1,6-dimethyl-4-[(3R,4S)-3-methyl-4-(5-piperazin-1-yl-2-pyridyl)-1-piperidyl]pyrazolo[3,4-b]pyridine]
0.17 µM	CO[C@@H]1CN(c2ccc([C@H]3CCN(c4cc(C)nc5c4cnn5C)C[C@@H]3C)nc2)C[C@H]1N [Example 36, (3R,4R)-1-[6-[(3R,4S)-1-(1,6-dimethylpyrazolo[3,4-b]pyridin-4-yl)-3-methyl-4-piperidyl]-3-pyridyl]-4-methoxy-pyrrolidin-3-amine]
0.173 µM	Cc1cc(N2CC[C@H](c3ccc(N4CCOC[C@@H](N)C4)cn3)[C@@H](C)C2)c2cnn(C)c2n1 [Example 40, (6S)-4-[6-[(3R,4S)-1-(1,6-dimethylpyrazolo[3,4-b]pyridin-4-yl)-3-methyl-4-piperidyl]-3-pyridyl]-1,4-oxazepan-6-amine]
